Experimental data reported in US8003093B2, “B cell-based vaccine loaded with the ligand of natural killer T cell and antigen” (Seoul National University Industry Foundation, priority 2006, dated 2011).

Key:
[1] = rodents and apes; cited from earlier work
[2] = 2200 μg/kg, mouse; cited from earlier work
[3] = clinical trial, systemic administration; cited from earlier work
[4] = Dose escalation study of αGalCer; type: in vivo
Source text: There is a little, if ever, chance to show a slight systemic side effect (Giaccone et al., Clin. Cancer Res., 8: 3702, 2002).

## CCCCCCCCCCCCCCCCCCCCCCCCCC(=O)N[C@@H](CO[C@H]1O[C@H](CO)[C@H](O)[C@H](O)[C@H]1O)[C@H](O)[C@H](O)CCCCCCCCCCCCCC [αGalCer, Alpha-galactosylceramide]
[1]
  toxicity: doesn't seem to induce toxicity
[2]
  side effects: No side effects
[3]
  side effect: a light headache
[4]
  dose-limiting toxicity: did not cause dose-limiting toxicity
